Data as given in patent publication US20250176550A1, “HERBICIDE COMPOSITION OF URACIL COMPOUND CONTAINING CARBOXYLATE FRAGMENT AND THE USE THEREOF” (Jiangsu Flag Chemical Industry Co., Ltd., priority 2022, published 2025).

How the values were obtained:
Experiment in all cases: Indoor virulence and combined effect, greenhouse pot test, post-emergence stem and leaf spray, fresh weight inhibition
Type in all cases: in vivo
[1] = test system: veronica persica
Description: (§1) The active ingredients A and B are respectively screened and an indoor combined effect of the composition on weeds was evaluated by an indoor test and a field test, to determine a combined effect of the composition on weeds.
(§2) Quantitative seeds of Poaceae weeds (echinochloa crusgalli, Digitaria sanguinalis, setaria viridis, Eleusine indica, avena fatua, alopecurus japonicus, alopecurus aequalis, Lolium multiflorum) and broadleaf weeds (eclipta prostrata, rorippa dubia, Abutilon theophrasti, conyza canadensis, veronica persica, myosoton aquaticum, polygonum lapathifolium, galium aparine var. tenerum, alisma plantago-aquatica, geranium carolinianum) were sown in paper cup containing nutrient soil with a diameter of 7 cm, covered with soil for 1 cm after sowing. After pressing and watering, they were cultured in a greenhouse according to a conventional method. Poaceae weeds grew to 3˜4 leaf stage, broad-leaved weeds grew to 4˜6 leaf stage, spraying treatment to both stem and leaf was performed; and pre-seedling soil spray treatment was performed 24 hours after sowing. Following an experimental design dosage, a WP-2000 walking spray tower (spindle speed 96 mm/r, spray height 200 mm, effective spray amplitude of nozzle 350 mm, nozzle flow rate 390 mL/min, nozzle walking speed 210 mm/s) was used for the spray treatment. The experiment was repeated three times. After being treated, a sample material is placed in an operation hall, and after the drug solution is naturally dried out, the sample material is placed in a greenhouse and managed according to the conventional method. A reaction of weeds to the drug agent is observed and recorded, and a regularly visual check of a control effect of the drug agent on weeds was performed after the treatment.
(§3) All of original drugs were using acetone as a solvent, being diluted with 0.1 wt % emulsifier of Tween-80 aqueous solution, and being diluted right before using.
(§4) When determining a ratio or content of the active ingredient A and the active ingredient B, it should be measured from characteristics of action of both agents and virulence thereof, as well as the main purpose of use of a formula shall also be considered in. In the present study, on a basis of previous pre-test, the dosages of the active ingredient A and the active ingredient B were set, when being used alone and mixed, as shown in the following table. Water containing no agent, but containing the same solvent and emulsifier was used as a blank control.
(§5) Repeat 4 times for each treatment, 3 pots per treatment each time and 30 weed seeds were sown for each pot.
(§6) Adopting an absolute number survey method, using a blade to cut the whole seedling of surviving weed along soil surface, and weighting the fresh weight of the weed with an analytical balance. For weeds that had died, counting the fresh weight as zero.
(§7) Survey period and frequency: 21 days after the treatment, total 1 investigation.
(§8) The theoretical fresh weight inhibition rate (E0-Expected Efficacy=[…]) of each treatment combination was calculated by Gowing method, and then compared with the measured inhibition rate (E-Observed Efficacy) to evaluate the combined effect type of both on weeds. When E-E0 value was greater than 10%, it was counted as a synergistic effect, less than −10%, it was counted as an antagonistic effect, and between −10%˜10%, it was counted as an additive effect. According to a plurality of factors including an actual control efficacy, a herbicide characteristic, a formula balance and other factors to determine the best ratio. In the formula, X is the fresh weight inhibition rate of the ingredient A at a dosage of P; Y is the fresh weight inhibition rate of the active ingredient B at a dosage of Q.
(§9) The statistical results are shown in Table 1 to Table 44 below, except for those marked clearly as “pre-emergence treatment”, all others are “post-emergence treatment”. […]

[2] = test system: eclipta prostrata
Description: as §1, §2, §3, §4, §5, §6, §7, §8, §9

[3] = test system: lolium multiflorum
Description: as §1, §2, §3, §4, §5, §6, §7, §8, §9

[4] = test system: echinochloa crusgalli
Description: as §1
as §2, with “Following an experimental design dosage, a WP-2000 walking spray tower (spindle speed 96 mm/r, spray height 200 mm, effective spray amplitude of nozzle 350 mm, nozzle flow rate 390 mL/min, nozzle walking speed 210 mm/s) was used for the spray treatment.” left out, “method.” for “method. A reaction of weeds to the drug agent is observed and recorded, and a regularly visual check of a control effect of the drug agent on weeds was performed after the treatment.”
as §3, §4, §5, §6, §7
When E-E0 value was greater than 10%, it was counted as a synergistic effect, less than −10%, it was counted as an antagonistic effect, and between −10%˜10%, it was counted as an additive effect. […] In the formula, X is the fresh weight inhibition rate of the ingredient A at a dosage of P; Y is the fresh weight inhibition rate of the active ingredient B at a dosage of Q.

CCCCC(CC)COC(=O)COc1ccc(Cl)cc1Cl [2,4-D-etexyl]
Fresh weight inhibition rate %, B single agent ([1]; Table 23, B 195 g a.i./ha): 30.42% | Fresh weight inhibition rate %, B single agent ([1]; Table 23, B 275 g a.i./ha): 40.62% | Fresh weight inhibition rate %, B single agent ([1]; Table 23, B 350 g a.i./ha): 50.28%

Cc1cc(Cl)ccc1OCC(=O)[O-].[Na+] [MCPA-sodium]
Fresh weight inhibition rate %, B single agent ([2]; Table 43, B 80 g a.i./ha): 37.73% | Fresh weight inhibition rate %, B single agent ([2]; Table 43, B 160 g a.i./ha): 45.00%

CC(C)N1C(=O)c2ccccc2NS1(=O)=O [bentazone-sodium]
inhibition at 300 g/ha ([1]; Veronica persica, 504 h, Table 9, 300 g a.i./ha, post-emergence, 21 days after treatment, read-out: Fresh weight inhibition rate %, B single agent): 30.5% | inhibition at 450 g/ha ([1]; Veronica persica, 504 h, Table 9, 450 g a.i./ha, post-emergence, 21 days after treatment, read-out: Fresh weight inhibition rate %, B single agent): 41.9% | inhibition at 525 g/ha ([1]; Veronica persica, 504 h, Table 9, 525 g a.i./ha, post-emergence, 21 days after treatment, read-out: Fresh weight inhibition rate %, B single agent): 53.3%

C=CCOC(=O)C(C)(C)OC(=O)c1cc(-n2c(=O)cc(C(F)(F)F)n(C)c2=O)ccc1Cl [butafenacil]
Fresh weight inhibition rate %, B single agent ([3]; Table 34, B 7.5 g a.i./ha): 29.47% | Fresh weight inhibition rate %, B single agent ([3]; Table 34, B 12.5 g a.i./ha): 36.55% | Fresh weight inhibition rate %, B single agent ([3]; Table 34, B 20 g a.i./ha): 43.60% | Fresh weight inhibition rate %, B single agent ([3]; Table 34, B 30 g a.i./ha): 53.40%

CC1(C)CON(Cc2ccccc2Cl)C1=O [clomazone]
inhibition at 12.5 g/ha ([4]; Echinochloa crus-galli, 504 h, Table 17, 12.5 g a.i./ha, post-emergence, 21 days after treatment, read-out: Fresh weight inhibition rate %, B single agent): 8.42% | inhibition at 20 g/ha ([4]; Echinochloa crus-galli, 504 h, Table 17, 20 g a.i./ha, post-emergence, 21 days after treatment, read-out: Fresh weight inhibition rate %, B single agent): 7.51% | inhibition at 45 g/ha ([4]; Echinochloa crus-galli, 504 h, Table 17, 45 g a.i./ha, post-emergence, 21 days after treatment, read-out: Fresh weight inhibition rate %, B single agent): 10.9%

N#Cc1cnn(-c2nn3c(c2Cl)CCCC3)c1NCC1CC1 [cyclopyranil]
Fresh weight inhibition rate %, B single agent ([4]; Table 37, B 12.5 g a.i./ha): 24.73% | Fresh weight inhibition rate %, B single agent ([4]; Table 37, B 20 g a.i./ha): 25.46% | Fresh weight inhibition rate %, B single agent ([4]; Table 37, B 30 g a.i./ha): 31.50% | Fresh weight inhibition rate %, B single agent ([4]; Table 37, B 40 g a.i./ha): 39.05%

CNC.COc1c(Cl)ccc(Cl)c1C(=O)O [dicamba-dimethylammonium]
Fresh weight inhibition rate %, B single agent ([1]; Table 24, B 40 g a.i./ha): 11.68% | Fresh weight inhibition rate %, B single agent ([1]; Table 24, B 60 g a.i./ha): 25.89% | Fresh weight inhibition rate %, B single agent ([1]; Table 24, B 80 g a.i./ha): 37.82% | Fresh weight inhibition rate %, B single agent ([1]; Table 24, B 100 g a.i./ha): 38.58%

c1cc[n+]2c(c1)-c1cccc[n+]1CC2 [diquat]
Fresh weight inhibition rate %, B single agent ([3]; Table 27, B 300 g a.i./ha): 31.27% | Fresh weight inhibition rate %, B single agent ([3]; Table 27, B 400 g a.i./ha): 36.44% | Fresh weight inhibition rate %, B single agent ([3]; Table 27, B 495 g a.i./ha): 41.37%

C#CCN1C(=O)COc2cc(F)c(N3C(=O)C4=C(CCCC4)C3=O)cc21 [flumioxazin]
Fresh weight inhibition rate %, B single agent ([2]; Table 11, B 8 g a.i./ha): 24.97% | Fresh weight inhibition rate %, B single agent ([2]; Table 11, B 16 g a.i./ha): 39.68% | Fresh weight inhibition rate %, B single agent ([2]; Table 11, B 20 g a.i./ha): 45.24% | Fresh weight inhibition rate %, B single agent ([2]; Table 11, B 30 g a.i./ha): 54.24%

CCOC(=O)COC(=O)c1cc(Oc2ccc(C(F)(F)F)cc2Cl)ccc1[N+](=O)[O-] [fluoroglycofen-ethyl]
Fresh weight inhibition rate %, B single agent ([2]; Table 12, B 8 g a.i./ha): 11.99% | Fresh weight inhibition rate %, B single agent ([2]; Table 12, B 16 g a.i./ha): 27.44% | Fresh weight inhibition rate %, B single agent ([2]; Table 12, B 20 g a.i./ha): 42.03%

CCCCCCC(C)OC(=O)COc1nc(F)c(Cl)c(N)c1Cl (stereo not drawn) [fluroxypyr-meptyl]
Fresh weight inhibition rate %, B single agent ([2]; Table 42, B 32 g a.i./ha): 30.91% | Fresh weight inhibition rate %, B single agent ([2]; Table 42, B 40 g a.i./ha): 34.55% | Fresh weight inhibition rate %, B single agent ([2]; Table 42, B 60 g a.i./ha): 39.55% | Fresh weight inhibition rate %, B single agent ([2]; Table 42, B 80 g a.i./ha): 73.18%

CP(=O)(O)CC[C@H](N)C(=O)O.N [glufosinate-P-ammonium]
Fresh weight inhibition rate %, B single agent ([3]; Table 20, B 200 g a.i./ha): 8.61% | Fresh weight inhibition rate %, B single agent ([3]; Table 20, B 300 g a.i./ha): 74.40% | Fresh weight inhibition rate %, B single agent ([3]; Table 20, B 350 g a.i./ha): 78.23% | Fresh weight inhibition rate %, B single agent ([3]; Table 20, B 400 g a.i./ha): 83.04%

CP(=O)(O)CCC(N)C(=O)O (stereo not drawn) [glufosinate-ammonium]
Fresh weight inhibition rate %, B single agent ([3]; Table 19, B 120 g a.i./ha): 2.63% | Fresh weight inhibition rate %, B single agent ([3]; Table 19, B 210 g a.i./ha): 12.20% | Fresh weight inhibition rate %, B single agent ([3]; Table 19, B 300 g a.i./ha): 27.99% | Fresh weight inhibition rate %, B single agent ([3]; Table 19, B 400 g a.i./ha): 54.64%

COCc1cnc(C2=NC(C)(C(C)C)C(=O)N2)c(C(=O)[O-])c1.[Na+] (stereo not drawn) [imazamox-sodium]
Fresh weight inhibition rate %, B single agent ([4]; Table 3, 15 g a.i./ha, post-emergence, 21 days after treatment): 2.52% | Fresh weight inhibition rate %, B single agent ([4]; Table 3, 20 g a.i./ha, post-emergence, 21 days after treatment): 13.41%

COc1cnc(OC)n2nc(NS(=O)(=O)c3c(OCC(F)F)cccc3C(F)(F)F)nc12 [penoxsulam]
inhibition at 5 g/ha ([4]; Echinochloa crus-galli, 504 h, Table 2, 5 g a.i./ha, post-emergence, 21 days after treatment, read-out: Fresh weight inhibition rate %, B single agent): 7.31% | inhibition at 10 g/ha ([4]; Echinochloa crus-galli, 504 h, Table 2, 10 g a.i./ha, post-emergence, 21 days after treatment, read-out: Fresh weight inhibition rate %, B single agent): 18.3%

Nc1c(Cl)c(Cl)nc(C(=O)O)c1Cl [picloram-potassium, picloram]
Fresh weight inhibition rate %, B single agent ([1]; Table 26, B 450 g a.i./ha): 42.89% | Fresh weight inhibition rate %, B single agent ([1]; Table 26, B 525 g a.i./ha): 47.46% | Fresh weight inhibition rate %, B single agent ([1]; Table 26, B 600 g a.i./ha): 50.25% | Fresh weight inhibition rate %, B single agent ([1]; Table 26, B 600 g a.i./ha (row 2 + 600)): 50.25%

COC(=O)CCNC(=O)C(C)Sc1cc(-n2c(=O)cc(C(F)(F)F)n(C)c2=O)c(F)cc1Cl (stereo not drawn) [tiafenacil]
Fresh weight inhibition rate %, B single agent ([3]; Table 38, B 10 g a.i./ha): 8.27% | Fresh weight inhibition rate %, B single agent ([3]; Table 38, B 15 g a.i./ha): 15.26% | Fresh weight inhibition rate %, B single agent ([3]; Table 38, B 20 g a.i./ha): 22.42%

broclozone
Fresh weight inhibition rate %, B single agent ([4]; Table 44, B 50 g a.i./ha): 5.86% | Fresh weight inhibition rate %, B single agent ([4]; Table 44, B 80 g a.i./ha): 16.30% | Fresh weight inhibition rate %, B single agent ([4]; Table 44, B 120 g a.i./ha): 33.00% | Fresh weight inhibition rate %, B single agent ([4]; Table 44, B 150 g a.i./ha): 44.95%
